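Five concentrations, 48 hours, 96-well plates. TGI: concentration producing complete growth inhibition.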
What was measured:
Test in all cases: NCI tumour cell line growth inhibition, 48 h
UO-31 renal = system: UO-31 renal
U251 CNS = system: U251 CNS
HOP-62 NSCLC = system: HOP-62 NSCLC
UACC-257 melanoma = system: UACC-257 melanoma
SNB-78 CNS = system: SNB-78 CNS
NCI-H522 lung = system: NCI-H522 lung
MOLT-4 leukemia = system: MOLT-4 leukemia
M19-MEL melanoma = system: M19-MEL melanoma
SN12C renal = system: SN12C renal
DLD-1 colon = system: DLD-1 colon
T-47D breast = system: T-47D breast

Row | Compound | TGI (UO-31 renal) [µM] | TGI (U251 CNS) [µM] | TGI (HOP-62 NSCLC) [µM] | TGI (UACC-257 melanoma) [µM] | TGI (SNB-78 CNS) [µM] | TGI (NCI-H522 lung) [µM] | TGI (MOLT-4 leukemia) [µM] | TGI (M19-MEL melanoma) [µM] | TGI (SN12C renal) [µM] | TGI (DLD-1 colon) [µM] | TGI (T-47D breast) [µM]
1 | CCOC(=O)CNc1nnnn1C1OC(CO)C(O)C1O (configuration not stated) | > 100 | > 100 | > 100 | > 100 | > 100 | > 100 | > 100 | > 100 | > 100 | > 100 | 
2 | C=C(CCCO)[C@@H]1CC[C@@](C)(O)[C@H]1C | > 100 | > 100 |  | > 100 | > 100 | > 100 | > 100 | > 100 | > 100 |  | 
3 | Cc1ccc2nc(NC(=O)/C(=N\NC(=S)NN)C3C(=O)NC(=S)NC3=O)sc2c1 | > 100 | > 100 | > 100 | > 100 | > 100 | > 100 | > 100 |  | > 100 | > 100 | 
4 | Nc1ccc(Sc2c3ccccc3nc3ccccc23)cc1 | 34.3 | 28 | 56.9 | 33.1 | 53.3 | 16 | 27.1 | 47.9 | 36.1 | 19.7 | 5.6
5 | Cn1cnc([N+](=O)[O-])c1Sc1nccc(=O)[nH]1 | > 100 | > 100 | > 100 | > 100 | > 100 | > 100 | > 100 | > 100 | > 100 | > 100 | 
6 | Cc1ccc(NC(=O)OCC(COc2ccc(Cl)cc2Cl)OC(=O)Nc2ccc(C)cc2)cc1 (configuration not stated) | > 100 | > 100 | > 100 | > 100 | > 100 |  |  | > 100 | > 100 | > 100 | 
7 | CCN(CC)CCn1c2ccccc2c(=O)c2c(OC)ccc(OC)c21 | > 100 | > 100 | > 100 | > 100 | > 100 | > 100 | > 100 | > 100 | > 100 |  | 
8 | CC1C2CC=CC(=O)[C@@]2(C)CCC12OCCO2 (some centres not stated) | > 100 | > 100 | > 100 | > 100 | > 100 | > 100 | > 100 | > 100 | > 100 | > 100 | 
9 | COc1ccc2nc(NC(=O)C(=O)NNC(=O)c3ccncc3)sc2c1 | > 100 | > 100 | > 100 | > 100 | > 100 | > 100 |  | > 100 | > 100 | > 100 | 
10 | CCOCc1cc(=O)c2c(OC)cc3c(c2o1)CCC(C)(C)O3 | > 100 | > 100 | > 100 | > 100 | > 100 | > 100 | > 100 | > 100 | > 100 | > 100 | 
11 | CC(C)C1N2CCCCC2[C@@H]2c3[nH]c4ccccc4c3CCN12 (some centres not stated) | > 100 | > 100 | > 100 | > 100 | > 100 |  | > 100 | > 100 | > 100 | > 100 | 
12 | CCOC(=O)C(=O)Nc1ccccc1C(C)C | > 100 | > 100 | > 100 | > 100 |  | > 100 | > 100 | > 100 | > 100 | > 100 | 
